Reference: US20260184663A1, “INDENE COMPOUNDS, PHARMACEUTICAL COMPOSITIONS THEREOF, AND THEIR THERAPEUTIC APPLICATIONS” (NucMito Pharmaceuticals co. Ltd., priority 2022, published 2026)
Like-named read-outs stand apart in the source and are kept apart here.

Legend:
Type in all cases: cell-based
[1] = tested on: MDA-MB-231 (breast cancer); assay: Antiproliferative activity (CCK-8 cell viability), MDA-MB-231; settings: Homo sapiens, 72 h, read-out: Antiproliferative activity in cancerous cells, MDA-MB-231 (inhibition of cell growth); for inhibition at 3.3 µM: Compound concentration: 3.3 μM; for inhibition at 10 µM: Compound concentration: 10 μM; for inhibition at 30 µM: Compound concentration: 30 μM
In short: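 MDA-MB-231 breast cancer cells, grown in DMEM with 10% FBS, were plated in 96-well plates at 2,000-5,000 cells/well. Once attached, they were exposed to compound and incubated at 37° C. for 72 h. Viability was then measured with CCK-8 (10 μL per well, 4 h at 37° C.) by absorbance at 450 nm, relative to DMSO vehicle wells.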

HepG2 (liver cancer) = assay: Antiproliferative activity (CCK-8 cell viability), HepG2; settings: Homo sapiens, 72 h, read-out: Antiproliferative activity in cancerous cells, HepG2 (inhibition of cell growth); for inhibition at 3.3 µM: Compound concentration: 3.3 μM; for inhibition at 10 µM: Compound concentration: 10 μM; for inhibition at 30 µM: Compound concentration: 30 μM
In short: (§1)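 Cells grown in DMEM (HepG2, SW480), MEM (HeLa) or F-12K (A549), each with 10% FBS, then exposed to compound at 3.3, 10 or 30 μM for 72 h at 37 °C. CCK-8 absorbance at 450 nm; viability expressed as percent of DMSO-treated cells, graded as growth inhibition bands.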

SW480 (colon cancer) = assay: Antiproliferative activity (CCK-8 cell viability), SW480; settings: Homo sapiens, 72 h; for inhibition at 3.3 µM: Compound concentration: 3.3 μM; for inhibition at 10 µM: Compound concentration: 10 μM; for inhibition at 30 µM: Compound concentration: 30 μM
In short: as §1

[2] = tested on: B16F10 (malignant melanoma); assay: Antiproliferative activity (CCK-8 cell viability), B16F10; settings: Mus musculus, 72 h, read-out: Antiproliferative activity in cancerous cells, B16F10 (inhibition of cell growth); for inhibition at 3.3 µM: B16-F10, Compound concentration: 3.3 μM; for inhibition at 10 µM: B16-F10, Compound concentration: 10 μM; for inhibition at 30 µM: B16-F10, Compound concentration: 30 μM
In short: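 B16F10 melanoma cells grown in DMEM with 10% FBS were plated in 96-well plates at 2,000-5,000 cells/well. After attachment they were exposed to compound in medium for 72 h at 37° C. CCK-8 solution (10 μL) was then added, and after 4 h at 37° C absorbance was read at 450 nm.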

[3] = tested on: A431 (epidermoid carcinoma); assay: Antiproliferative activity (CCK-8 cell viability), A431; settings: Homo sapiens, 72 h; for inhibition at 3.3 µM: A-431, Compound concentration: 3.3 μM; for inhibition at 10 µM: A-431, Compound concentration: 10 μM; for inhibition at 30 µM: A-431, Compound concentration: 30 μM
In short: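 A431 epidermoid carcinoma cells grown in DMEM with 10% FBS were plated at 2,000-5,000 cells/well in 96-well plates. After attachment they were exposed to compound at 3.3 μM, 10 μM, or 30 μM for 72 h at 37° C. Viability was then assessed by CCK-8 against DMSO vehicle-treated wells.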

[4] = tested on: A549 (lung adenocarcinoma); assay: Antiproliferative activity (CCK-8 cell viability), A549; settings: Homo sapiens, 72 h; for inhibition at 3.3 µM: Compound concentration: 3.3 μM; for inhibition at 10 µM: Compound concentration: 10 μM; for inhibition at 30 µM: Compound concentration: 30 μM
In short: as §1

HeLa (cervical cancer) = assay: Antiproliferative activity (CCK-8 cell viability), HeLa; settings: Homo sapiens, 72 h, read-out: Antiproliferative activity in cancerous cells, HELA (inhibition of cell growth); for inhibition at 3.3 µM: Compound concentration: 3.3 μM; for inhibition at 10 µM: Compound concentration: 10 μM; for inhibition at 30 µM: Compound concentration: 30 μM
In short: as §1

[5] = read-out: Antiproliferative activity in cancerous cells, SW480 (inhibition of cell growth)
[6] = read-out: Antiproliferative activity in cancerous cells, A431 (inhibition of cell growth)
[7] = read-out: Antiproliferative activity in cancerous cells, A549 (inhibition of cell growth)
[8] = read-out: Antiproliferative activity in cancerous cells, SW480

Structure (SMILES) | inhibition at 3.3 µM [1] [%] | inhibition at 10 µM [1] [%] | inhibition at 3.3 µM (HepG2 (liver cancer)) [%] | inhibition at 10 µM (HepG2 (liver cancer)) [%] | inhibition at 3.3 µM (SW480 (colon cancer); [5]) [%] | inhibition at 10 µM (SW480 (colon cancer); [5]) [%] | inhibition at 3.3 µM [2] [%] | inhibition at 10 µM [2] [%] | inhibition at 3.3 µM [3, 6] [%] | inhibition at 10 µM [3, 6] [%] | inhibition at 3.3 µM [4, 7] [%] | inhibition at 10 µM [4, 7] [%] | inhibition at 3.3 µM (HeLa (cervical cancer)) [%] | inhibition at 10 µM (HeLa (cervical cancer)) [%] | inhibition at 30 µM [1] [%] | inhibition at 30 µM (HepG2 (liver cancer)) [%] | inhibition at 30 µM (SW480 (colon cancer); [5]) [%] | inhibition at 30 µM [2] [%] | inhibition at 30 µM [3, 6] [%] | inhibition at 30 µM [4, 7] [%] | also measured
CC1=C(CC(=O)O)c2cc(F)ccc2/C1=C\c1ccc(Oc2ccc(Cl)cc2F)cc1 [C52, (Z)-2-(1-(4-(4-Chloro-2-fluorophenoxy)benzylidene)-5-fluoro-2-methyl-1H-inden-3-yl)acetic acid] | 30 to 50 | ≥ 50 | < 30 | ≥ 50 | < 30 | ≥ 50 | ≥ 50 | ≥ 50 | ≥ 50 | ≥ 50 | 30 to 50 | ≥ 50 | 30 to 50 | ≥ 50 |  |  |  |  |  |  | 
COc1cc(Oc2cccc(/C=C3/C(C)=C(CC(=O)O)c4cc(F)ccc43)c2)ccc1Cl [C107, (Z)-2-(1-(3-(4-Chloro-3-methoxyphenoxy)benzylidene)-5-fluoro-2-methyl-1H-inden-3-yl)acetic acid] | ≥ 50 | ≥ 50 | < 30 | ≥ 50 | 30 to 50 | ≥ 50 | ≥ 50 | ≥ 50 | ≥ 50 | ≥ 50 | ≥ 50 | ≥ 50 | < 30 | ≥ 50 |  |  |  |  |  |  | 
CC1=C(CC(=O)O)c2cc(F)ccc2/C1=C/c1cccc(COc2ccc(F)c(F)c2)c1 [E9, 2-[(1E)-1-({3-[(3,4-Difluorophenoxy)methyl]phenyl}methylidene)-5-fluoro-2-methyl-1H-inden-3-yl]acetic acid] | ≥ 50 | ≥ 50 | 30 to 50 | ≥ 50 | ≥ 50 | ≥ 50 | 30 to 50 | ≥ 50 | < 30 | ≥ 50 | 30 to 50 | 30 to 50 | < 30 | 30 to 50 | ≥ 50 | ≥ 50 | ≥ 50 | ≥ 50 | ≥ 50 | ≥ 50 | inhibition at 30 µM (HeLa (cervical cancer)): ≥ 50%
COc1ccc(S(=O)(=O)Cc2ccc(/C=C3\C(C)=C(CC(=O)O)c4cc(F)ccc43)cc2)cc1 [E20, (E)-2-(5-Fluoro-1-(4-(((4-methoxyphenyl)sulfonyl)methyl)benzylidene)-2-methyl-1H-inden-3-yl)acetic acid] | < 30 | 30 to 50 | 30 to 50 | ≥ 50 | 30 to 50 | 30 to 50 | < 30 | 30 to 50 | 30 to 50 | ≥ 50 | < 30 | 30 to 50 | < 30 | ≥ 50 | ≥ 50 | ≥ 50 | ≥ 50 | ≥ 50 | ≥ 50 | ≥ 50 | inhibition at 30 µM (HeLa (cervical cancer)): ≥ 50%
CC1=C(CC(=O)O)c2cc(F)ccc2/C1=C/c1ccc(Oc2ccc(F)cc2Cl)cc1 [E25, (E)-2-(1-(4-(2-Chloro-4-fluorophenoxy)benzylidene)-5-fluoro-2-methyl-1H-inden-3-yl)acetic acid] | < 30 | < 30 | < 30 | ≥ 50 | ≥ 50 | ≥ 50 | 30 to 50 | 30 to 50 | ≥ 50 | ≥ 50 | < 30 | < 30 | 30 to 50 | ≥ 50 | ≥ 50 | ≥ 50 | ≥ 50 | ≥ 50 | ≥ 50 | ≥ 50 | inhibition at 30 µM (HeLa (cervical cancer)): ≥ 50%
CC1=C(CC(=O)O)c2cc(F)ccc2/C1=C\c1cccc(Oc2ccc3ccccc3c2)c1 [C99, (Z)-2-(5-Fluoro-2-methyl-1-(3-(naphthalen-2-yloxy)benzylidene)-1H-inden-3-yl)acetic acid] | < 30 | 30 to 50 | < 30 | ≥ 50 | < 30 | < 30 | ≥ 50 | ≥ 50 | < 30 | < 30 | < 30 | < 30 | < 30 | ≥ 50 |  |  |  |  |  |  | 
CC1=C(CC(=O)O)c2cc(F)ccc2/C1=C\c1ccc(CCc2ccc(F)cc2)cc1 [B145, (Z)-2-(5-Fluoro-1-(4-(4-fluorophenethyl)benzylidene)-2-methyl-1H-inden-3-yl)acetic acid] | < 30 | < 30 | < 30 | ≥ 50 | < 30 | < 30 | < 30 | < 30 | ≥ 50 | ≥ 50 | < 30 | < 30 | 30 to 50 | ≥ 50 |  |  |  |  |  |  | inhibition at 30 µM (SW480 (colon cancer); [8]): 30 to 50%
CC1=C(CC(=O)O)c2cc(F)ccc2/C1=C\c1cccc(CNc2ccccc2)c1 [B14, (Z)-2-(5-Fluoro-2-methyl-1-(3-((phenylamino)methyl)benzylidene)-1H-inden-3-yl)acetic acid] | < 30 | 30 to 50 | < 30 | < 30 | < 30 | < 30 | < 30 | 30 to 50 | < 30 | < 30 | ≥ 50 | ≥ 50 | 30 to 50 | 30 to 50 |  |  |  |  |  |  | inhibition at 30 µM (SW480 (colon cancer); [8]): 30 to 50%; inhibition at 30 µM ([3]; read-out: Antiproliferative activity in cancerous cells, A431): 30 to 50%; inhibition at 30 µM ([4]; read-out: Antiproliferative activity in cancerous cells, A549): 30 to 50%
